IC50 data for 19 compounds are collected here from US10508109B2 (priority 2015, dated 2019).

Each structure is given as a SMILES string.

One assay relates to A549. Nature of the assay: Cell-based assay, anti-proliferative activity (Cell Counting Kit-8, 72 hours). The note with it: Homo sapiens; A549 cells, Cell Counting Kit-8, 72 hours; read-out: IC50 (μM) A549. An outline of the steps: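 Seed cells in 96-well format; add inhibitors; measure growth by CCK-8 at end of exposure; derive IC50.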
A general note: Formazan colour is commonly taken as a measure of viable cells.

A further assay addresses SUV39H2 (Homo sapiens (Human), UniProt Q9H5I1). As to conditions: read-out: IC50 (μM) Suv 39H2 assay; enzyme assay.
The test system of the next assay is CCD-18Co. Kind of assay: Cell-based assay, anti-proliferative activity (Cell Counting Kit-8, 72 hours). The note with it: Homo sapiens; CCD-18Co cells, Cell Counting Kit-8, 72 hours; read-out: IC50 (μM) CCD-18Co. In a few lines:
(§1)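 CCK-8 viability read 72 h after compound exposure over an 8-point series from 1.5625 to 100 micro-M plus zero. Seeding density 2,000–3,000 cells/well; IC50 from the dilution series.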

The next assay deals with PC14. Described as above. As to conditions: Homo sapiens, PC-14; PC14 cells, Cell Counting Kit-8, 72 hours; read-out: IC50 (μM) PC14. An outline of the steps:
as §1

The test system of the next assay is HFL1. The description is as above. As to conditions: Homo sapiens; HFL1 cells, Cell Counting Kit-8, 72 hours; read-out: IC50 (μM) HFL1. In a few lines: as §1
The test system of the next assay is HCT-116. The assay is described as above. The note with it: Homo sapiens; HCT-116 cells, Cell Counting Kit-8, 72 hours; read-out: IC50 (μM) HCT-116. An outline of the steps:
as §1

SUV39H2, sequence (Q9H5I1 whole entry): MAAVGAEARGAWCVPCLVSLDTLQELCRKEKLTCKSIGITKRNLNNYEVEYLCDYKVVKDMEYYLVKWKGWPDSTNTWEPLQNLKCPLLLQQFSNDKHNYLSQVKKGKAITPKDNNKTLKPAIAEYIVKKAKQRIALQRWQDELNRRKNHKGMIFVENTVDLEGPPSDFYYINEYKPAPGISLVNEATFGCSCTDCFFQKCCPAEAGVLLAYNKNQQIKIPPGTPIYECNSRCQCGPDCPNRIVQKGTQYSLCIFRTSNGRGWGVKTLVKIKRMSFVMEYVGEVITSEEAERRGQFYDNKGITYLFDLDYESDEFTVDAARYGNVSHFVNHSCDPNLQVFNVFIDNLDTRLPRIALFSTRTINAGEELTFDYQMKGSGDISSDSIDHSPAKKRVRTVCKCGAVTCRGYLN

Take `COc1cc(OC)c(-c2cn3ccc(N4CCN(CCN5CCCCC5)CC4)cc3n2)cc1Cl` [Example 135, 2-(5-chloro-2,4-dimethoxyphenyl)-7-(4-(2-(piperidin-1-yl)ethyl)piperazin-1-yl)imidazo[1,2-a]pyridine]: the IC50 with A549 came out at 3 µM; at SUV39H2, 0.0128 µM; in the assay with CCD-18Co, 2.8 µM; with PC14 it was 2.6 µM; with HFL1, 4.8 µM; in the assay on HCT-116 it was 2.4 µM.
For the compound `COc1cc(OC)c(-c2cn3ccc(N4CCN(CCN5CCN(C(=O)OC(C)(C)C)CC5)CC4)cc3n2)cc1Cl` [Example 136, tert-butyl 4-(2-(4-(2-(5-chloro-2,4-dimethoxyphenyl)imidazo[1,2-a]pyridin-7-yl)piperazin-1-yl)ethyl)piperazine-1-carboxylate], the IC50 is 1.5 µM in the assay with A549; 0.0166 µM on SUV39H2; 1.8 µM in the assay with CCD-18Co; 2.2 µM with PC14; 1.8 µM with HFL1; 1.5 µM in the assay with HCT-116.
Regarding `COc1cc(OC)c(-c2cn3ccc(N4CCN(CCC(N)=O)CC4)cc3n2)cc1Cl` [Example 137, 3-(4-(2-(5-chloro-2,4-dimethoxyphenyl)imidazo[1,2-a]pyridin-7-yl)piperazin-1-yl)propanamide], the IC50 with A549 came out at 24 µM; at SUV39H2 it was 0.00454 µM; with CCD-18Co it was 14 µM; in the assay on PC14 it was 12 µM; in the assay with HFL1, 13 µM; with HCT-116, 14 µM.
On to `COc1cc(OC)c(-c2cn3ccc(N4CCNC4=O)cc3n2)cc1Cl` [Example 138, 1-(2-(5-chloro-2,4-dimethoxyphenyl)imidazo[1,2-a]pyridin-7-yl)-imidazolidin-2-one], for which the IC50 stood at 5.2 µM in the assay with A549; 0.0201 µM at SUV39H2; 2.2 µM in the assay with CCD-18Co; 3.6 µM with PC14; 5.5 µM in the assay on HFL1; 16 µM in the assay on HCT-116.
Regarding `COc1cc(OCCCN(C)C)c(-c2cn3ccc(N4CCNCC4)cc3n2)cc1Cl` [Example 139, 3-{4-chloro-5-methoxy-2-[7-(piperazin-1-yl)imidazo[1,2-a]pyridin-2-yl]phenoxy}-N,N-dimethylpropan-1-amine], the IC50 in the assay with A549 was determined as 1.7 µM; on SUV39H2, 0.025 µM; in the assay with CCD-18Co, 2.5 µM; in the assay on PC14 it was 2.1 µM; in the assay on HFL1, 1.6 µM; in the assay on HCT-116, 2.4 µM.
`CCOC(=O)CCN1CC=C(c2ccn3cc(-c4cc(Cl)c(OC)cc4OC)nc3c2)CC1` [Example 140, ethyl 3-(4-(2-(5-chloro-2,4-dimethoxyphenyl)imidazo[1,2-a]pyridin-7-yl)-5,6-dihydropyridin-1(2H)-yl)propanoate]: the IC50 with A549 came to 25 µM; at SUV39H2, 0.0578 µM; with CCD-18Co, 56 µM; with PC14, 12 µM; with HFL1, 27 µM; in the assay on HCT-116, 16 µM.
On to `COc1cc(OC)c(-c2cn3ccc(N4CCN(CCN5CCNCC5)CC4)cc3n2)cc1Cl` [Example 142, 2-(5-chloro-2,4-dimethoxyphenyl)-7-(4-(2-(piperazin-1-yl)ethyl)piperazin-1-yl)imidazo-[1,2-a]pyridine], for which the IC50 with A549 was 6.6 µM; at SUV39H2, 0.00785 µM; in the assay on CCD-18Co, 7.8 µM; with PC14, 8.7 µM; in the assay with HFL1, 7.1 µM; in the assay with HCT-116 it was 8.2 µM.
In the case of `COc1cc(OC)c(-c2cn3ccc(N4CCN(CCN5CCCC5)CC4)cc3n2)cc1Cl` [Example 143, 2-(5-chloro-2,4-dimethoxyphenyl)-7-(4-(2-(pyrrolidin-1-yl)ethyl)piperazin-1-yl)imidazo[1,2-a]pyridine], the half-maximal inhibitory concentration (IC50) in the assay with A549 worked out at 4 µM; on SUV39H2, 0.0044 µM; in the assay on CCD-18Co, 2.7 µM; with PC14, 4.4 µM; in the assay with HFL1 it was 8.5 µM; in the assay with HCT-116, 8.1 µM.
For the compound `COc1cc(OC)c(-c2cn3ccc(C4=CCN(CCN5CCOCC5)CC4)cc3n2)cc1Cl` [Example 144, 4-(2-{4-[2-(5-chloro-2,4-dimethoxyphenyl)imidazo[1,2-a]pyridin-7-yl]-5,6-dihydropyridin-1(2H)-yl}ethyl)morpholine], the IC50 was 3.9 µM with A549; 0.0191 µM at SUV39H2; 6.3 µM in the assay on CCD-18Co; 1.5 µM in the assay with PC14; 7 µM with HFL1; 5.9 µM in the assay with HCT-116.
Consider `COc1cc(OC)c(-c2cn3ccc(N4CCN(C(=O)OC(C)(C)C)CC4)nc3n2)cc1Cl` [Example 145, tert-butyl 4-[2-(5-chloro-2,4-dimethoxyphenyl)imidazo[1,2-a]pyrimidin-7-yl]piperazine-1-carboxylate], for which the IC50 came out at 1.9 µM in the assay on A549; 0.0738 µM at SUV39H2; 2.8 µM in the assay on CCD-18Co; 1.5 µM in the assay on PC14; 2.8 µM in the assay on HFL1; 3.1 µM in the assay on HCT-116.
As to `COc1cc(OC)c(-c2cn3ccc(N4CCN(S(=O)(=O)C5CC5)CC4)nc3n2)cc1Cl` [Example 146, 2-(5-chloro-2,4-dimethoxyphenyl)-7-[4-(cyclopropylsulfonyl)piperazin-1-yl]imidazo[1,2-a]pyrimidine], the IC50 was 0.49 µM in the assay on A549; 0.0247 µM on SUV39H2; 4.2 µM in the assay with CCD-18Co; 0.24 µM in the assay on PC14; 1.4 µM in the assay with HFL1; 0.69 µM in the assay with HCT-116.
On to `COc1cc(OC)c(-c2cn3ccc(C4=CCN(CCN5CCCCC5)CC4)cc3n2)cc1Cl` [Example 147, 2-(5-chloro-2,4-dimethoxyphenyl)-7-(1-(2-(piperidin-1-yl)ethyl)-1,2,3,6-tetrahydropyridin-4-yl)imidazo[1,2-a]pyridine], for which the IC50 in the assay with A549 was determined as 7 µM; at SUV39H2, 0.0295 µM; in the assay on CCD-18Co, 6 µM; in the assay with PC14 it was 5.9 µM; with HFL1, 8.7 µM; in the assay with HCT-116 it was 7.3 µM.
For the compound `COc1cc(OCCCN(C)C)c(-c2cn3ccc(N4CCC(NC(=O)OC(C)(C)C)CC4)cc3n2)cc1Cl` [Example 148, tert-butyl (1-(2-{5-chloro-2-[3-(dimethylamino)propoxy]-4-methoxyphenyl}imidazo[1,2-a]pyridin-7-yl)piperidin-4-yl)carbamate], the 50% inhibitory concentration (IC50) in the assay with A549 is 1.8 µM; at SUV39H2, 0.0373 µM; in the assay on CCD-18Co it was 0.78 µM; in the assay with PC14, 1.4 µM; in the assay with HFL1, 0.53 µM; in the assay with HCT-116, 1.3 µM.
As for `COc1cc(OC)c(-c2cn3ccc(N4CCC(CNS(=O)(=O)C5CC5)CC4)cc3n2)cc1Cl` [Example 149, N-((1-(2-(5-Chloro-2,4-dimethoxyphenyl)imidazo[1,2-a]pyridin-7-yl)piperidin-4-yl)methyl)cyclopropanesulfonamide], the IC50 in the assay with A549 was found to be 2.5 µM; on SUV39H2 it was 0.00672 µM; in the assay on CCD-18Co it was 4.8 µM; in the assay on PC14, 2.4 µM; with HFL1 it was 1.9 µM; in the assay with HCT-116, 2.3 µM.
Consider `COc1cc(OCCCN(C)C)c(-c2cn3ccc(N4CCC(N)CC4)cc3n2)cc1Cl` [Example 150, 1-(2-{5-chloro-2-[3-(dimethylamino)propoxy]-4-methoxyphenyl}-imidazo[1,2-a]pyridin-7-yl)piperidin-4-amine], for which the IC50 stood at 2.3 µM in the assay on A549; 0.035 µM at SUV39H2; 2.4 µM with CCD-18Co; 2.2 µM in the assay with PC14; 0.86 µM in the assay on HFL1; 2.1 µM in the assay on HCT-116.
Take `COc1cc(OC)c(-c2cn3ccc(N)cc3n2)cc1Cl` [Example 151, 2-(5-chloro-2,4-dimethoxyphenyl)imidazo[1,2-a]pyridin-7-amine]: the IC50 was 5.1 µM in the assay on A549; 0.00827 µM on SUV39H2; 2.4 µM in the assay with CCD-18Co; 2.9 µM with PC14; 1.9 µM in the assay with HFL1; 2.3 µM in the assay on HCT-116.
Turning to `COC(=O)N1CCN(c2ccn3cc(-c4cc(Cl)c(OC)cc4OCCCN(C)C)nc3c2)CC1` [Example 152, methyl 4-(2-(5-chloro-2-(3-(dimethylamino)propoxy)-4-methoxyphenyl)-imidazo[1,2-a]pyridin-7-yl)piperazine-1-carboxylate], the IC50 in the assay on A549 was found to be 6.4 µM; on SUV39H2, 0.0199 µM; with CCD-18Co, 5.3 µM; with PC14 it was 2.7 µM; with HFL1, 1.9 µM; in the assay with HCT-116 it was 7.1 µM.
Consider `COc1cc(OC)c(-c2cn3ccc(N4CCNCC4)nc3n2)cc1Cl` [Example 153, 2-(5-chloro-2,4-dimethoxyphenyl)-7-(piperazin-1-yl)imidazo[1,2-a]-pyrimidine], for which the IC50 amounted to 10 µM in the assay on A549; 0.0526 µM at SUV39H2; 11 µM with CCD-18Co; 4.1 µM in the assay on PC14; 5.3 µM with HFL1; 8.6 µM in the assay with HCT-116.
For `COc1cc(OCCCN(C)C)c(-c2cn3ccc(N4CCN(S(C)(=O)=O)CC4)cc3n2)cc1Cl` [Example 155, 3-(4-chloro-5-methoxy-2-{7-[4-(methylsulfonyl)piperazin-1-yl]-imidazo[1,2-a]pyridin-2-yl}phenoxy)-N,N-dimethylpropan-1-amine], the IC50 in the assay on A549 was determined as 7.5 µM; at SUV39H2, 0.0127 µM; with CCD-18Co, 7.5 µM; in the assay with PC14, 3.8 µM; in the assay on HFL1, 5.5 µM; with HCT-116 it was 5.8 µM.

As a reminder, the IC50 is the concentration that gives 50% inhibition.
